Measured values from PubChem BioAssay AID248 (DTP/NCI, 2004).
Several values for one entry are separate records, joined by “and”; a condition that tells them apart may be missing. Equal values may be shown once. Toxic doses and inconclusive results are not listed. No stated cut-off is given here; in the data, active means T/C of 150% or more; inactive means T/C below 125%.

Tested on: L1210 leukemia ip in BDF1 mice, survival T/C
Assay: NCI In Vivo Anticancer Drug Screen. Data for tumor model L1210 Leukemia (intraperitoneal) in B6D2F1 (BDF1) mice
Settings: endpoint: mean survival time, higher = longer survival
Method in brief: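 Mice bearing the transplanted tumor received compound or vehicle. Survival of the treated group was divided by that of the vehicle-treated control group to give the ratio.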

[1] = dose: 100.0 mg/kg/injection, schedule: Q01DX009 (ip), vehicle: saline
[2] = dose: 200.0 mg/kg/injection, schedule: Q01DX009 (ip), vehicle: saline
[3] = dose: 400.0 mg/kg/injection, schedule: Q01DX009 (ip), vehicle: saline
[4] = dose: 100.0 mg/kg/injection, schedule: Q04DX002 (ip), vehicle: Klucel (hydroxypropylcellulose) (HPC)
[5] = dose: 200.0 mg/kg/injection, schedule: Q04DX002 (ip), vehicle: Klucel (hydroxypropylcellulose) (HPC)
[6] = dose: 400.0 mg/kg/injection, schedule: Q04DX002 (ip), vehicle: Klucel (hydroxypropylcellulose) (HPC)
[7] = dose: 100.0 mg/kg/injection, schedule: Q01DX001 (ip), vehicle: saline
[8] = dose: 200.0 mg/kg/injection, schedule: Q01DX001 (ip), vehicle: saline

Measured: T/C

CCO/C(=C\C(=O)c1ccccc1)c1ccccc1
inactive: dose: 50.0 mg/kg/injection, schedule: Q01DX009 (ip), vehicle: saline sonified 92 % of control | dose: 100.0 mg/kg/injection, schedule: Q01DX009 (ip), vehicle: saline sonified 95 % of control | dose: 200.0 mg/kg/injection, schedule: Q01DX009 (ip), vehicle: saline sonified 94 % of control

CCOCCC(O)CC (stereo not drawn)
inactive: [1] 98 % of control | dose: 100.0 mg/kg/injection, schedule: Q04DX003 (ip), vehicle: saline 90 % of control | [2] 98 % of control | dose: 200.0 mg/kg/injection, schedule: Q04DX003 (ip), vehicle: saline 88 % of control | [3] 98 % of control | dose: 400.0 mg/kg/injection, schedule: Q04DX003 (ip), vehicle: saline 89 % of control

O=C(NCC(O)CNC(=O)Nc1ccc(C2=NCCCN2)cc1)Nc1ccc(C2=NCCCN2)cc1
inactive: dose: 1.25 mg/kg/injection, schedule: Q01DX Z (ip), vehicle: carboxymethylcellulose (CMC) 98 % of control | dose: 2.5 mg/kg/injection, schedule: Q01DX Z (ip), vehicle: carboxymethylcellulose (CMC) 101 % of control | dose: 5.0 mg/kg/injection, schedule: Q01DX Z (ip), vehicle: carboxymethylcellulose (CMC) 90 % of control | dose: 10.0 mg/kg/injection, schedule: Q01DX Z (ip), vehicle: carboxymethylcellulose (CMC) 97 % of control and 106 % of control | dose: 20.0 mg/kg/injection, schedule: Q01DX Z (ip), vehicle: carboxymethylcellulose (CMC) 104 % of control

CC(=O)OCCOc1ccccc1Cl
inactive: dose: 100.0 mg/kg/injection, schedule: Q04DX002 (ip), vehicle: saline with Tween-80 118 % of control | dose: 200.0 mg/kg/injection, schedule: Q04DX002 (ip), vehicle: saline with Tween-80 108 % of control | dose: 400.0 mg/kg/injection, schedule: Q04DX002 (ip), vehicle: saline with Tween-80 114 % of control

O=[As](O)(O)c1ccc(OCCO)cc1
inactive: [1] 96 % of control | [2] 96 % of control

CCOc1ccc(Nc2cccc3ccccc23)cc1
inactive: [4] 94 % of control | [5] 88 % of control | [6] 98 % of control

CC1=CC2=NC(=O)C(c3ccccc3)C(=O)N2C=C1 (stereo not drawn)
inactive: dose: 100.0 mg/kg/injection, schedule: Q01DX009 (ip), vehicle: Klucel (hydroxypropylcellulose) (HPC) 90 % of control | dose: 100.0 mg/kg/injection, schedule: Q04DX003 (ip), vehicle: Klucel (hydroxypropylcellulose) (HPC) 90 % of control | dose: 200.0 mg/kg/injection, schedule: Q01DX009 (ip), vehicle: Klucel (hydroxypropylcellulose) (HPC) 100 % of control | dose: 200.0 mg/kg/injection, schedule: Q04DX003 (ip), vehicle: Klucel (hydroxypropylcellulose) (HPC) 103 % of control | dose: 400.0 mg/kg/injection, schedule: Q01DX009 (ip), vehicle: Klucel (hydroxypropylcellulose) (HPC) 86 % of control | dose: 400.0 mg/kg/injection, schedule: Q04DX003 (ip), vehicle: Klucel (hydroxypropylcellulose) (HPC) 97 % of control

N#CC(Cc1ccccc1)C(=O)O (stereo not drawn)
inactive: dose: 50.0 mg/kg/injection, schedule: Q01DX Z (ip), vehicle: saline 106 % of control | dose: 100.0 mg/kg/injection, schedule: Q01DX Z (ip), vehicle: saline 102 % of control | dose: 200.0 mg/kg/injection, schedule: Q01DX Z (ip), vehicle: saline 91 % of control

CSc1ccc(OC(=O)Nc2cccc(Cl)c2)cc1C
inactive: dose: 100.0 mg/kg/injection, schedule: Q01DX001 (ip), vehicle: carboxymethylcellulose (CMC) 94 % of control | dose: 100.0 mg/kg/injection, schedule: Q01DX009 (ip), vehicle: carboxymethylcellulose (CMC) 98 % of control | [4] 101 % of control | dose: 100.0 mg/kg/injection, schedule: Q04DX002 (ip), vehicle: carboxymethylcellulose (CMC) 96 % of control and 101 % of control | dose: 100.0 mg/kg/injection, schedule: Q04DX003 (ip), vehicle: carboxymethylcellulose (CMC) 101 % of control | dose: 200.0 mg/kg/injection, schedule: Q01DX001 (ip), vehicle: carboxymethylcellulose (CMC) 97 % of control | dose: 200.0 mg/kg/injection, schedule: Q01DX009 (ip), vehicle: carboxymethylcellulose (CMC) 100 % of control and 106 % of control | [5] 95 % of control | dose: 200.0 mg/kg/injection, schedule: Q04DX002 (ip), vehicle: carboxymethylcellulose (CMC) 95 % of control and 88 % of control | dose: 200.0 mg/kg/injection, schedule: Q04DX003 (ip), vehicle: carboxymethylcellulose (CMC) 94 % of control | dose: 400.0 mg/kg/injection, schedule: Q01DX001 (ip), vehicle: carboxymethylcellulose (CMC) 87 % of control | dose: 400.0 mg/kg/injection, schedule: Q01DX009 (ip), vehicle: carboxymethylcellulose (CMC) 93 % of control and 87 % of control | [6] 108 % of control | dose: 400.0 mg/kg/injection, schedule: Q04DX002 (ip), vehicle: carboxymethylcellulose (CMC) 95 % of control and 103 % of control | dose: 400.0 mg/kg/injection, schedule: Q04DX003 (ip), vehicle: carboxymethylcellulose (CMC) 92 % of control

NC(=O)Cc1csc2ccccc12
inactive: [7] 101 % of control | [8] 106 % of control

O=S(=O)(Nc1ccc(N(c2c(Cl)c(Cl)c(NS(=O)(=O)c3ccccc3)c(Cl)c2Cl)S(=O)(=O)c2ccccc2)cc1)c1ccccc1
inactive: dose: 100.0 mg/kg/injection, schedule: Q01DX001 (ip), vehicle: Klucel (hydroxypropylcellulose) (HPC) 93 % of control | dose: 200.0 mg/kg/injection, schedule: Q01DX001 (ip), vehicle: Klucel (hydroxypropylcellulose) (HPC) 96 % of control | dose: 400.0 mg/kg/injection, schedule: Q01DX001 (ip), vehicle: Klucel (hydroxypropylcellulose) (HPC) 95 % of control

CCOC(=O)c1cc2ccccc2n1-c1ccccc1
inactive: dose: 100.0 mg/kg/injection, schedule: Q01DX009 (ip), vehicle: saline with Tween-80 111 % of control | dose: 200.0 mg/kg/injection, schedule: Q01DX009 (ip), vehicle: saline with Tween-80 104 % of control | dose: 400.0 mg/kg/injection, schedule: Q01DX009 (ip), vehicle: saline with Tween-80 104 % of control

CCC(N)C(O)C(F)(F)C(F)(F)C(F)(F)F (stereo not drawn)
inactive: [7] 112 % of control | [8] 103 % of control

Cc1ccc(NC(=O)OCCSCCOC(=O)Nc2ccc(C)cc2)cc1
inactive: dose: 100.0 mg/kg/injection, schedule: Q01DX009 (ip), vehicle: other 89 % of control | dose: 200.0 mg/kg/injection, schedule: Q01DX009 (ip), vehicle: other 89 % of control | dose: 400.0 mg/kg/injection, schedule: Q01DX009 (ip), vehicle: other 97 % of control

CC(=O)O[C@H]1[C@H]2O[C@]23[C@@H]2CC[C@]4(O)C[C@@H](O)CC[C@]4(C)[C@H]2CC[C@]3(C)[C@H]1c1ccc(=O)oc1
inactive: dose: 10.0 mg/kg/injection, schedule: Q01DX001 (ip), vehicle: other 90 % of control | dose: 20.0 mg/kg/injection, schedule: Q01DX001 (ip), vehicle: other 100 % of control | dose: 40.0 mg/kg/injection, schedule: Q01DX001 (ip), vehicle: other 107 % of control | dose: 100.0 mg/kg/injection, schedule: Q01DX001 (ip), vehicle: other 94 % of control | dose: 200.0 mg/kg/injection, schedule: Q01DX001 (ip), vehicle: other 92 % of control

Cc1cn(CCC(N)C(=O)O)c(=O)[nH]c1=O (stereo not drawn)
inactive: [1] 103 % of control | dose: 100.0 mg/kg/injection, schedule: Q04DX002 (ip), vehicle: saline 106 % of control | [2] 117 % of control | dose: 200.0 mg/kg/injection, schedule: Q04DX002 (ip), vehicle: saline 89 % of control | [3] 95 % of control | dose: 400.0 mg/kg/injection, schedule: Q04DX002 (ip), vehicle: saline 113 % of control

Nc1nc(CNc2ccccc2)nc(Nc2ccccc2)n1
inactive: dose: 100.0 mg/kg/injection, schedule: Q04DX003 (ip), vehicle: saline with Tween-80 89 % of control | dose: 200.0 mg/kg/injection, schedule: Q04DX003 (ip), vehicle: saline with Tween-80 101 % of control | dose: 400.0 mg/kg/injection, schedule: Q04DX003 (ip), vehicle: saline with Tween-80 89 % of control
